Columns and labels:
DC tumors = assay: Xenograft of DC tumor cells (pL-Her2^YVMA complemented) in NCR nude mice maintained off doxycycline; format: in vivo, mouse; details: 5 mice bearing DC tumors, Tamoxifen IP for 8 consecutive days, observed up to a month, untreated group had tumors within 10 days
Experimental: Minced DC tumor was thawed at 37° C. and cells were dissociated by passing through cell strainers (100 μm filters, BD Falcon Cat. No. 352360). The cells were collected and centrifuged at 1000 rpm for 5 minutes, washed twice with PBS and counted using hemocytometer and resuspended in one part PBS (Gibco Cat. No. 24020-117) to one part Matrigel (BD Cat. No. 3542334) for injections.
(§1) Tamoxifen treatment: To activate CreER^T2 and induce Cre mediated recombination (i.e., excision) between loxP sites, animals were treated with 0.1 ml tamoxifen (10 mg/ml in corn oil) through intraperitoneal (IP) injection for […].
(§2) About 0.1 million DC tumor cells were injected subcutaneously into 10 NCR nude mice on the right flank. These mice were maintained off doxycycline. Similarly 10 NCR nude mice were inoculated with archived BHc tumor and maintained on doxycycline. These mice were divided into 4 groups.
The fourth group contained of 5 mice bearing DC tumors. They were treated with Tamoxifen for 8 consecutive days.

BHc tumors = assay: Xenograft of archived BHc tumor in NCR nude mice maintained on doxycycline; format: in vivo, mouse; details: 5 mice bearing BHc tumors, Tamoxifen IP for 8 consecutive days
Experimental: as §1, §2
The second group contained of 5 mice bearing BHc tumors. They were treated with Tamoxifen for 8 consecutive days.

## CC/C(=C(\c1ccccc1)c1ccc(OCCN(C)C)cc1)c1ccccc1 [Tamoxifen, tamoxifen]
DC tumors
  tumor formation: Tumors were never observed
BHc tumors
  tumor growth compared with untreated group: grew slower than group 1
BHc tumors; all 5 mice, untreated group within 10 days
  time until tumors were observed: ≤ 12 days

Reference: patent publication US20090165150A1, “DIRECTED COMPLEMENTATION WITH REMOVABLE GENE OF INTEREST” (priority 2007, published 2009)
